Data from publication PMC10712105 (Journal of Translational Medicine, 2023).
Where “and” joins values, the source holds several entries; their conditions need not be identical. Identical values can stand only once. Counter-ions that a name gives are not always drawn. Like-named read-outs stand apart in the source and are kept apart here. Blank lines part the entries; values can stand above or below the molecule they belong to.

Columns and labels:
[1] = parameters: method as in PMID 8289200; details: in the presence of HSA; cited from earlier work
HSA = details: cited from earlier work
[2] = cited from earlier work
[3] = test system: HCT-116 CRC xenograft tumors; experiment: HCT-116 model efficacy study; details: for tumor growth inhibition (TGI) on Day 10: IV (irinotecan 50 mg/kg, SPESN38-5 55 mg/kg), vs control group, female SCID mice
Experimental: (§1) After growing in Eagle's Minimum Essential, HCT-116 cells were harvested by trypsinization and washed twice with PBS. HCT-116 cells (2 × 10^6 per injection) were suspended in 200 µL of a 1:1 solution of ice-cold PBS and Matrigel (Corning Incorporated, Corning, NY) solution. […] After the tumors grew to 800–1200 mm^3, they were isolated, and approximately 50 mg of non-necrotic tumor masses were subcutaneously implanted into the flank area of individual female SCID mice. […] Other doses at 75 and 50 mg/kg were tried on healthy CD-1 mice. […] Tumor volume (TV) and BW were measured three times per week or daily depending on the condition of the mouse. TV was calculated using the formula: v = 0.5 (L x W^2). Progression at the endpoint was a tumor size with diameter ≥ 20 mm or a moribund condition.

SCID mice and CD-1 mice = experiment: Irinotecan IV dose tolerability; assay type: in vivo, mouse
Experimental: as §1

[4] = Irinotecan IV dose tolerability; assay type: in vivo, mouse; details: female, mouse, in vivo; SCID mice, via IV
Experimental: as §1

[5] = parameters: method as in earlier work; details: irinotecan at 200 mg/kg, mice, cited from earlier work
[6] = test system: SK-LMS-1 xenograft tumors; assay type: in vivo, SCID mice; parameters: Estimate of tumor volume difference vs SPESN38-8 / Estimate of tumor volume difference vs Vehicle: unit not given here; details: for Tumor volume, Mean / Tumor volume, Median: in mm³ (unit assumed); for Tumor volume change from Day 0, Mean / Tumor volume change from Day 0, Median: volume minus day 0 volume
Text: SK-LMS-1 cell line (HTB-88) was purchased from ATCC. […] Equal number (12) of female and male mice were used in this experiment. […] The intended schedule for drug or vehicle treatment was weekly for 3 doses.
A mixed linear regression model was made with tumor volume as the outcome on day 2, 6, and 9. The model tested for group differences adjusted for time, day 0 volume, and sex. There was a within animal correlation modeled using a random intercept. […] The black color columns are within group at between days, the red columns are between group at each day.

SK-LMS-1 = SK-LMS-1 cell line; cited from earlier work
[7] = Water solubility and solution stability; assay type: physicochemical
Text: Following the formation of SPESN38 complexes, the solution was lyophilized to yield yellowish powder.

cancer cells = test system: cancer cells; parameters: method as in PMID 11489791, PMID 1651156; details: cited from earlier work
[8] = Membrane dialysis SN38 release kinetics; assay type: physicochemical; details: in 7 h; 0.1 M NaHCO3 buffer, pH 8.6
[9] = DOX 5 mg/kg qwk x 2, SPESN38-8 IV 33 mg/kg qwk x 3
[10] = Day 2, mixed linear regression model, Tukey-Kramer pairwise test
[11] = Day 6, mixed linear regression model, Tukey-Kramer pairwise test
[12] = IV, DOX 5 mg/kg, SPESN38-8 33 mg/kg, relative to control group
[13] = mixed linear regression model, Tukey-Kramer pairwise test

SMILES: CC[C@@]1(O)C(=O)OCc2c1cc1n(c2=O)Cc2cc3ccccc3nc2-1 [CPT, Camptothecin]
L form at the equilibrium [1]: < 0.5%
fold higher HSA affinity for the C form over the L form (HSA): 157 fold

SMILES: CCc1c2c(nc3ccc(OC(=O)N4CCC(N5CCCCC5)CC4)cc13)-c1cc3c(c(=O)n1C2)COC(=O)[C@]3(O)CC [irinotecan]
fraction of irinotecan transformed in vivo into SN38 ([2]; human setting): 2–8%
drug excreted as intact irinotecan ([2]; in humans): 55%
tumor growth inhibition (TGI) on Day 10 [3]: 82%
tumor growth inhibition (TGI) on Day 10 ([3]; listed as Irinotecan): 82.3%
Tumor weight Difference vs SPESN38-5 PO on Day 10 ([3]; IV groups on Day 21): -0.6587
Tumor weight Difference vs Vehicle on Day 10 ([3]; IV groups on Day 21): -0.9605
Mean % BW change at ending day ([3]; normalized BW, ending Day 21, IV qwk x 3 (irinotecan 50 mg/kg, SPESN38-5 55 mg/kg)): 90.5%
Tolerability (SCID mice and CD-1 mice; 50 mg/kg IV, 2 healthy CD-1 mice): safe
Mortality (SCID mice and CD-1 mice; 75 mg/kg IV, healthy CD-1 mice): died instantly
Mortality (SCID mice and CD-1 mice; 100 mg/kg IV, 2 SCID mice bearing HCT-116): both died immediately
MTD [4]: 50 mg/kg
AUC0-∞ ([5]; moiety Free SN38): 9,940 ng x h/mL
Cmax ([5]; moiety Free SN38): 1,125 ng/mL
Tmax ([5]; moiety Free SN38): 31.8 min
AUC0-∞ ([5]; moiety Irinotecan): 16,348 ng x h/mL
Cmax ([5]; moiety Irinotecan): 6,571 ng/mL
Tmax ([5]; moiety Irinotecan): 17.4 min
AUC0-∞ ([5]; moiety SN38-G): 15,493 ng x h/mL
Cmax ([5]; moiety SN38-G): 2,620 ng/mL
Tmax ([5]; moiety SN38-G): 36 min

BW loss after 2 doses ([6]; mouse, in vivo): > 20%
SMILES: COc1cccc2c1C(=O)c1c(O)c3c(c(O)c1C2=O)C[C@@](O)(C(=O)CO)C[C@@H]3O[C@H]1C[C@H](N)[C@H](O)[C@H](C)O1 [DOX, doxorubicin]
% Tumor volume change at Day 9 [6, 9]: 142% and 142.4%
Mean Tumor volume at Day 9 [6, 9]: 843.5 mm^3
Tumor weight on ending day, Mean ([6]; DOX Day 9, SPESN38-8 Day 21): 0.73 g
Tumor weight on ending day, Median ([6]; DOX Day 9, SPESN38-8 Day 21): 0.71 g
Initial mean Tumor volume ([6]; Day 0, DOX 5 mg/kg qwk x 2, SPESN38-8 IV 33 mg/kg qwk x 3): 334.2 mm^3
Tumor volume, Mean ([6]; Day 0): 334.20
Tumor volume, Median ([6]; Day 0): 343.40
Tumor volume, Mean ([6]; Day 2): 347.68
Tumor volume, Median ([6]; Day 2): 355.78
Estimate of tumor volume difference vs SPESN38-8 [6, 10]: 42.5383
Estimate of tumor volume difference vs Vehicle [6, 10]: -178.73
Tumor volume change from Day 0, Mean ([6]; Day 2): 13.48
Tumor volume change from Day 0, Median ([6]; Day 2): 14.71
Tumor volume, Mean ([6]; Day 6): 495.42
Tumor volume, Median ([6]; Day 6): 464.84
Estimate of tumor volume difference vs SPESN38-8 [6, 11]: 132.53
Estimate of tumor volume difference vs Vehicle [6, 11]: -258.70
Tumor volume change from Day 0, Mean ([6]; Day 6): 161.22
Tumor volume change from Day 0, Median ([6]; Day 6): 138.34
Tumor volume, Mean ([6]; Day 9): 843.52
Tumor volume, Median ([6]; Day 9): 810.34
Estimate of tumor volume difference vs SPESN38-8 ([6]; Day 9, mixed linear regression model, Tukey-Kramer pairwise test): 538.49
Tumor volume change from Day 0, Mean ([6]; Day 9): 509.32
Tumor volume change from Day 0, Median ([6]; Day 9): 472.65
TGI on Day 6 [6, 12]: 27% and 26.9%
TGI on Day 9 [6, 12]: 25% and 25.3%
Estimate of tumor volume difference within group, Day 2 vs Day 6 [6, 13]: -147.74
Estimate of tumor volume difference within group, Day 2 vs Day 9 [6, 13]: -495.84
Estimate of tumor volume difference within group, Day 6 vs Day 9 [6, 13]: -348.11
IC50 (SK-LMS-1): 0.49 µM

SMILES: CCc1c2c(nc3ccc(O)cc13)-c1cc3c(c(=O)n1C2)COC(=O)[C@]3(O)CC [SN38, 7-ethyl-10-hydroxy camptothecin]
water solubility [7]: very low solubility in water
times more cytotoxic than irinotecan (cancer cells): 100–1000 times

SMILES: CCc1c2c(nc3ccc(O)cc13)-c1cc3c(c(=O)n1C2)COC(=O)[C@]3(O)CC [SN38 salt]
solution stability ([7]; under the same conditions as SPESN38 complexes): neither SN38 salt nor SN38 salt-HSA mixture is stable
SN38 out of the membrane tubing [8]: > 90%
